Experimental data: patent publication US20210338656A1, “IMMUNOSTIMULATORY AGENTS IN COMBINATION WITH ANGIOGENESIS INHIBITORS” (Alkermes Pharma Ireland Limited, priority 2020, published 2021)

How the values were obtained:
[1] = tested on: MC38 murine colon carcinoma cells; experiment: Anti-tumor efficacy in subcutaneous MC38 syngeneic tumor model (tumor growth, survival); assay type: in vivo, mouse
Experimental: The characteristics of each animal study group, the administration of the test articles and timing, the collection of samples and the overall study design are as shown in Tables 1 and 2:
(68-72° F.) and 40-60% humidity.
Additional aliquots were stored at 4° C. for use within 72 hours of formulation. Just prior to administration, dosing solutions were remixed with gentle inversion.
Group mean tumor volumes were plotted versus time. When an animal exited the study because of tumor size or TR death, its final recorded tumor volume was included with the data used to calculate the mean volume. Mean tumor volumes were calculated for a group until 50% of the animals had exited the study. Kaplan-Meier plots show the percentage of animals in each group remaining in the study versus time.

[2] = tested on: gene expression in MC38 tumors; experiment: RNA-Seq gene expression in MC38 tumors, Day 10; assay type: in vivo, mouse
Experimental: On Day 10 spleens and tumors were collected and weighed from all animals in Groups 7 through 12 and weighed prior to processing. Tissues from four animals in each group were processed to single cell suspensions for flow cytometry analysis at CRL-NC (described below). Tissues from the remaining six animals in each group were preserved in RNAlater, stored at −80° C.
Tumors and spleens were dissected on the appropriate day of the study and were weighed and immediately placed in RNAlater Stabilizing Reagent to preserve the tissue and stored overnight at 4 deg C. The following day, the samples were removed from RNA later and snap frozen and placed at −80 deg C.
Unless otherwise indicated, everything was done on ice and the materials were prechilled on ice. The tissues were homogenized in TRIzol in Precellys tissue grinding tubes. After homogenization, the TRIzol solutions were transferred to 1.5 ml tubes and spun for 5 min at 12,000×g to eliminate the insoluble material. The TRIzol solutions were then transferred to Phasemaker tubes. Chloroform was added, the tubes were capped, and shaken vigorously for 15 seconds. The samples were then incubated at room temperature for 2-15 minutes and centrifuged at 12,000×g for 5 minutes. The upper, aqueous phase was then transferred to a new tube and an equal volume of 70% ethanol was added and it was vortexed. The liquid was then transferred to Qiagen RNeasy columns and centrifuged at 8000×g. DNAse was added to each tube to eliminate any residual DNA. The columns were then washed and eluted as directed by the kit. The RNA concentrations were determined using a Qubit.
Libraries were prepared for sequencing by using the Mouse Transcriptome Ion AmpliSeq Library Preparation on the Ion Chef System as directed by the manufacturer. Eight samples of purified RNA and 8 unique IonCode molecular barcodes were added to a 96 well plate and were prepared at a time. After the libraries were prepared, they were templated and loaded onto an Ion Torrent 540 chip using the Ion 540 Chef Kit from ThermoFisher. The 540 chips were then loaded into a Gene Studio S5 sequencer and sequenced.
Raw sequencing data was processed by Torrent Suite (v5.8.0) software that came with the Gene Studio sequencer (ThermoFisher). For each sample, this program summarized gene expression in a CHP file. The CHP files were then loaded into the Transcriptome Analysis Console (TAC) program (ThermoFisher).

[3] = T cell signaling gene, MC38 tumors Day 10 RNA-Seq, lucitanib 10 mg/kg po, SEQ ID NO. 2 3 mg/kg sc
[4] = Type I/II interferon pathway gene, MC38 tumors Day 10 RNA-Seq, lucitanib 10 mg/kg po, SEQ ID NO. 2 3 mg/kg sc
[5] = antigen presentation gene, MC38 tumors Day 10 RNA-Seq, lucitanib 10 mg/kg po, SEQ ID NO. 2 3 mg/kg sc

CNC(=O)c1cccc2cc(Oc3ccnc4cc(OCC5(N)CC5)c(OC)cc34)ccc12 [Lucitanib, 6-(7-((1-Aminocyclopropyl)-methoxy)-6-methoxyquinolin-4-yloxy)-N-methyl-1-naphthamide]
tumor growth inhibition (TGI) ([1]; Day 11, lucitanib monotherapy 10 mg/kg p.o. daily): 100%
median survival time ([1]; lucitanib monotherapy 10 mg/kg p.o. daily for 28 days, vehicle 15 days): 39 days
tumor growth outcome (summary in words) ([1]; treatment arm summaries): transient inhibition of tumor growth
Cd3e mean expression value relative to vehicle group [2, 3]: 2.49
Cd4 mean expression value relative to vehicle group [2, 3]: 2.67
Cd8a mean expression value relative to vehicle group [2, 3]: 2.03
Cd8b1 mean expression value relative to vehicle group [2, 3]: 3.57
Cd28 mean expression value relative to vehicle group [2, 3]: 5.49
Cd247 mean expression value relative to vehicle group [2, 3]: 1.44
Cd3d mean expression value relative to vehicle group [2, 3]: 3.14
Ctla4 mean expression value relative to vehicle group [2, 3]: 4.10
H2-Aa mean expression value relative to vehicle group [2, 3]: 1.59
H2-Ab1 mean expression value relative to vehicle group [2, 3]: 1.12
H2-Eb1 mean expression value relative to vehicle group [2, 3]: 1.66
Icos mean expression value relative to vehicle group [2, 3]: 6.03
Ifng mean expression value relative to vehicle group [2, 3]: 2.74
Il2 mean expression value relative to vehicle group [2, 3]: 0.60
Lck mean expression value relative to vehicle group [2, 3]: 1.36
Lcp2 mean expression value relative to vehicle group [2, 3]: 0.40
Nfatc2 mean expression value relative to vehicle group [2, 3]: 0.34
Pdcd1 mean expression value relative to vehicle group [2, 3]: 0.75
Ptpn22 mean expression value relative to vehicle group [2, 3]: 1.16
Ptprc mean expression value relative to vehicle group [2, 3]: 2.25
Zap70 mean expression value relative to vehicle group [2, 3]: 1.46
B2m mean expression value relative to vehicle group [2, 4]: 0.32
Bst2 mean expression value relative to vehicle group [2, 4]: 0.75
Cd44 mean expression value relative to vehicle group [2, 4]: −0.26
Ciita mean expression value relative to vehicle group [2, 4]: 0.62
Fcgr1 mean expression value relative to vehicle group [2, 4]: 1.56
Gm10499 mean expression value relative to vehicle group [2, 4]: 0.04
H2-Aa mean expression value relative to vehicle group [2, 4]: 1.59
H2-Ab1 mean expression value relative to vehicle group [2, 4]: 1.12
H2-Eb1 mean expression value relative to vehicle group [2, 4]: 1.66
H2-K1 mean expression value relative to vehicle group [2, 4]: 0.26
H2-Q10 mean expression value relative to vehicle group [2, 4]: 0.32
Icam1 mean expression value relative to vehicle group [2, 4]: 0.43
Ifi35 mean expression value relative to vehicle group [2, 4]: 0.62
Ifit2 mean expression value relative to vehicle group [2, 4]: 0.25
Ifitm1 mean expression value relative to vehicle group [2, 4]: 0.38
Ifna2 mean expression value relative to vehicle group [2, 4]: 0
Ifnar1 mean expression value relative to vehicle group [2, 4]: −0.01
Ifnar2 mean expression value relative to vehicle group [2, 4]: 0.39
Ifnb1 mean expression value relative to vehicle group [2, 4]: 0.12
Ifng mean expression value relative to vehicle group [2, 4]: 2.74
Ifngr1 mean expression value relative to vehicle group [2, 4]: 0.84
Irf1 mean expression value relative to vehicle group [2, 4]: 0.3
Irf4 mean expression value relative to vehicle group [2, 4]: 1.23
Irf5 mean expression value relative to vehicle group [2, 4]: 0.02
Irf8 mean expression value relative to vehicle group [2, 4]: 0.38
Mx1 mean expression value relative to vehicle group [2, 4]: 1.14
Ncam1 mean expression value relative to vehicle group [2, 4]: 0.14
Pml mean expression value relative to vehicle group [2, 4]: 0.19
Ptpn6 mean expression value relative to vehicle group [2, 4]: 0.25
Socs3 mean expression value relative to vehicle group [2, 4]: −0.24
Tyk2 mean expression value relative to vehicle group [2, 4]: −0.16
Vcam1 mean expression value relative to vehicle group [2, 4]: 0.52
B2m mean expression value relative to vehicle group [2, 5]: 0.32
Btk mean expression value relative to vehicle group [2, 5]: 0.42
Cd14 mean expression value relative to vehicle group [2, 5]: 0.26
Cd36 mean expression value relative to vehicle group [2, 5]: 4.37
Cd74 mean expression value relative to vehicle group [2, 5]: 1.18
Ctsc mean expression value relative to vehicle group [2, 5]: 0.36
Ctss mean expression value relative to vehicle group [2, 5]: 2.29
Cybb mean expression value relative to vehicle group [2, 5]: 1.66
Fcgr1 mean expression value relative to vehicle group [2, 5]: 1.56
H2-Aa mean expression value relative to vehicle group [2, 5]: 1.59
H2-Ab1 mean expression value relative to vehicle group [2, 5]: 1.12
H2-DMa mean expression value relative to vehicle group [2, 5]: 1.18
H2-DMb2 mean expression value relative to vehicle group [2, 5]: 0.84
H2-Ea-ps mean expression value relative to vehicle group [2, 5]: 0
H2-Eb1 mean expression value relative to vehicle group [2, 5]: 1.66
H2-K1 mean expression value relative to vehicle group [2, 5]: 0.26
H2-Ob mean expression value relative to vehicle group [2, 5]: 2.19
H2-Q10 mean expression value relative to vehicle group [2, 5]: 0.32
Ly96 mean expression value relative to vehicle group [2, 5]: 0.58
Ncf4 mean expression value relative to vehicle group [2, 5]: 0.62
Psmb9 mean expression value relative to vehicle group [2, 5]: 0.6
Tap1 mean expression value relative to vehicle group [2, 5]: 0.51
Tlr1 mean expression value relative to vehicle group [2, 5]: 0.51
Tlr2 mean expression value relative to vehicle group [2, 5]: 0.12
Tlr4 mean expression value relative to vehicle group [2, 5]: 1.1
Esm1 expression, a target of VEGF signaling ([2]; tumors): decrease
expression of genes associated with cytotoxic immune cell function, T cell activation, and antigen presentation ([2]; tumors): Increased expression
